Measured values: PMC8615975, “Design of α/β-Hybrid Peptide Ligands of α4β1 Integrin Equipped with a Linkable Side Chain for Chemoselective Biofunctionalization of Microstructured Materials” (Biomedicines, 2021)
*1 amine or outer side, *2 acyl side, *3 side chain or, on linkers, in order; H or OH if unused. Where a SMILES comes first, the peptide text is derived from it. [ ]: non-standard residue; d: D form. The star is where a group is joined. X1 = O=C(Cc1ccc(N[*:1])cc1)[*:2]; NH(2-Me-phenyl) = Cc1ccccc1N*; CO = O=C([*:1])[*:2]

Legend:
[1] = target: T1, α4β1 integrin (Homo sapiens, UniProt P05556+P13612); experiment: Inhibition of α4β1 integrin-mediated Jurkat cell adhesion to FN; assay type: cell-based; conditions: for ability to modulate α4β1 integrin-mediated cell adhesion (in words): Jurkat cell adhesion to FN; for IC50: Jurkat cell adhesion to plates coated with FN (10 μg/mL), mean ± SD, three experiments in quadruplicate
T1 construct: Jurkat E6.1 cells (expressing α4β1) were maintained as a stationary suspension culture; host or cells: Jurkat E6.1
T1 sequence (P13612 34-1032): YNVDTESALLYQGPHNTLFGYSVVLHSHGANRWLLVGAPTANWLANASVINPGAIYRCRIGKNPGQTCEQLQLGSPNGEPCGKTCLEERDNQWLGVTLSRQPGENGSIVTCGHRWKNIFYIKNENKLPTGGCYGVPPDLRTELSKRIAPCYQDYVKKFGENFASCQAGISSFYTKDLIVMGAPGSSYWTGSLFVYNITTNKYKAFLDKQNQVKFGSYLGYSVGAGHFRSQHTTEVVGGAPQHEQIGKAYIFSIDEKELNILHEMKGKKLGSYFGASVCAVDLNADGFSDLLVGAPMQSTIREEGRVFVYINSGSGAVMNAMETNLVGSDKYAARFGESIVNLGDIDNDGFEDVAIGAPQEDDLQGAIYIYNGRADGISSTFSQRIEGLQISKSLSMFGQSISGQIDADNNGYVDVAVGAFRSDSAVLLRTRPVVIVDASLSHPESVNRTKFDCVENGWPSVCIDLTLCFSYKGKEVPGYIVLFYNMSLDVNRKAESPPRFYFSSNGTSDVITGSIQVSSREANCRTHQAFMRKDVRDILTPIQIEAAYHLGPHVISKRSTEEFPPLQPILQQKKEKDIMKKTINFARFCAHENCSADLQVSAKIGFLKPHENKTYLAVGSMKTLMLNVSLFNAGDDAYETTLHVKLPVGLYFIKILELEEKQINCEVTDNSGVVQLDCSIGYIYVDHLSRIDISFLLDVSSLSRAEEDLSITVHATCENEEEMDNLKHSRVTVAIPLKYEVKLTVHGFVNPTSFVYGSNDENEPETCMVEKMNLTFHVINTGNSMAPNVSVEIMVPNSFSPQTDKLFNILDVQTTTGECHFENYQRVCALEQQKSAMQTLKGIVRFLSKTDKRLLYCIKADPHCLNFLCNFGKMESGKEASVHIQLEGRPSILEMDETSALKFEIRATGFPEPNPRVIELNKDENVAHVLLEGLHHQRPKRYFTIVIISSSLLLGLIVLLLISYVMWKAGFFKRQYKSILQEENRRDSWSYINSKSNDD
T1 sequence (P05556 21-798): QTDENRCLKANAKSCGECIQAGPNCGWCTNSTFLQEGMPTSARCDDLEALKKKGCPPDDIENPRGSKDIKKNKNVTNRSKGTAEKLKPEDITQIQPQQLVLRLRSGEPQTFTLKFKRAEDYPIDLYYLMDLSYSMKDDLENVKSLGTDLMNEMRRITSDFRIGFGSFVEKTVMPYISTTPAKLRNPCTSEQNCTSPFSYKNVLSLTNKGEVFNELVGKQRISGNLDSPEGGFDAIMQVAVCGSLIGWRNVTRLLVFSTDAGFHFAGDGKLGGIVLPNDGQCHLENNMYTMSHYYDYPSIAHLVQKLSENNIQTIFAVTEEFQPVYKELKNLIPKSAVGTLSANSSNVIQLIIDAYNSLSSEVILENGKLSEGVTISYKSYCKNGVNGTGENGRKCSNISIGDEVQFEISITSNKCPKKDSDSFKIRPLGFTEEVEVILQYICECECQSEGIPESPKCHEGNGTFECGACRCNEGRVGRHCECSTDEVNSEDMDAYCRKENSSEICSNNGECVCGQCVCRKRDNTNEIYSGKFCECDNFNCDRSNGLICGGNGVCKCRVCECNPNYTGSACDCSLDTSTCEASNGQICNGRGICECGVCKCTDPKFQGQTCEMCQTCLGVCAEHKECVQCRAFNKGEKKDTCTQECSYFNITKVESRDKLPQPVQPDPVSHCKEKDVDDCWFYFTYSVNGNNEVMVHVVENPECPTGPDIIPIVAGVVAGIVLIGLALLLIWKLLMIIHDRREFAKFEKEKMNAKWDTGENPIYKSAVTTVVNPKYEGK
Experimental: All cell lines were purchased from the ATCC (Rockville, MD, USA). Jurkat E6.1 cells (expressing α4β1) were maintained as a stationary suspension culture in RPMI-1640 (Life Technologies, Carlsbad, CA, USA) supplemented with 2 mM glutamine and 10% FBS (fetal bovine serum). HEK293 cells were routinely cultured in EMEM (Lonza, Basel, Switzerland) enriched with 10% FBS, L-glutamine and nonessential amino acids. Cells were kept at 37 °C under a 5% CO2 humidified atmosphere.
The adhesion assays were performed as previously described. Briefly, black 96-well plates (Corning Costar, Celbio, Milan, Italy) were coated with FN (10 μg/mL). Cells were counted, stained with CellTracker green CMFDA (12.5 μM, 30 min at 37 °C, Life Technologies), and after three washes with 1% BSA (bovine serum albumin) in HBSS (Life Technologies) were preincubated with increasing concentrations of the new peptide ligands (10^−10–10^−4 M) or with the vehicle (methanol) for 30 min at 37 °C. Afterwards, cells were plated (500,000/well) on coated wells and incubated for 30 min at 37 °C. After three washes, adhered cells were lysed with 0.5% Triton X-100 in PBS (30 min at 4 °C) and fluorescence was measured (Ex485 nm/Em535 nm) in an EnSpire Multimode Plate Reader (PerkinElmer, Waltham, MA, USA).
The number of adherent cells was obtained by comparison with a standard curve prepared in the same plate using diverse concentrations of cells. Experiments were carried out in quadruplicate and repeated at least three times. Data analysis and IC50 values were calculated using GraphPad Prism 6.0 (GraphPad Software, San Diego, CA, USA).

[2] = Enzymatic stability in mouse serum; assay type: in vitro ADME; conditions: 37 °C, HPLC; for amount of intact peptide: after 3 h
Experimental: Incubations were carried out at 37 °C. Aliquots of 20 µL were sampled over 180 min from the mixtures and the samples were diluted with 90 µL of glacial ACN for precipitating proteins. The mixtures were diluted with 90 µL of 0.5% AcOH and centrifuged (13,000× g, 15 min). The supernatants were collected and the amount of intact peptides was determined by RP HPLC. The experiments were performed in triplicate and repeated three times.

[3] = parameters: method as in PMID 17523052, PMID 11682211; conditions: heparinized blood, plasma and rat liver, lung and intestinal homogenates; cited from earlier work
[4] = system: isolated α4β1 integrin; parameters: method as in PMID 30051467; conditions: read-out: IC50, affinity for the isolated α4β1 integrin; cited from earlier work
[5] = system: α4β1 integrin; parameters: method as in PMID 30051467; conditions: VCAM-1; read-out: IC50, adhesion of α4β1 integrin-expressing cells to VCAM-1; cited from earlier work
[6] = parameters: method as in PMID 30051467; conditions: incubation in mouse serum; cited from earlier work

| Compound | IC50 [1] | ability to modulate α4β1 integrin-mediated cell adhesion (in words) [1] | also measured |
| --- | --- | --- | --- |
| Cc1ccccc1NC(=O)Nc1ccc(CC(=O)N[C@@H](CC(C)C)C(=O)N[C@@H](CC(=O)O)C(=O)N[C@H](C(=O)N2CCC[C@H]2C(=O)O)C(C)C)cc1 [BIO1211, MPUPA-Leu-Asp-Val-Pro-OH, reference compound] ({NH(2-Me-phenyl)-CO}-[X1]LDVP-OH) |  |  | initial amount still present ([2]; after 1 h): about 10%; stability in physiological conditions (in words) [3]: poor stability |
| Cc1ccccc1NC(=O)Nc1ccc(CC(=O)N[C@H](C)CC(=O)NCC(=O)O)cc1 [Compound 8, MPUPA-β^3-homoAla-Gly-OH] | > 5000 nM |  |  |
| CCCNC(=O)[C@H](CC(=O)NCC(=O)O)NC(=O)Cc1ccc(NC(=O)Nc2ccccc2C)cc1 [Compound 11, MPUPA-isoAsp(NHPr)-Gly-OH] | > 5000 nM |  |  |
| Cc1ccccc1NC(=O)Nc1ccc(CC(=O)N2CC[C@H](C(=O)NCC(=O)O)C2)cc1 [Compound 6] |  |  | IC50 [4]: 8.3 nM; IC50 [5]: 5.04 nM; enzymatic stability (in words) [6]: good enzymatic stability |
| Cc1ccccc1NC(=O)Nc1ccc(CC(=O)NC[C@H](C)C(=O)NCC(=O)O)cc1 [Compound 9, MPUPA-β^2-homoAla-Gly-OH] | > 5000 nM | not able to modulate α4β1 integrin-mediated cell adhesion to a significant extent |  |
| Cc1ccccc1NC(=O)Nc1ccc(CC(=O)NC[C@@H](C)C(=O)NCC(=O)O)cc1 [Compound 10, MPUPA-β^2-homoAla-Gly-OH] | > 5000 nM | not able to modulate α4β1 integrin-mediated cell adhesion to a significant extent |  |

Further lines, with some results ahead:

| IC50 [1] | Compound | ability to modulate α4β1 integrin-mediated cell adhesion (in words) [1] | also measured |
| --- | --- | --- | --- |
| > 5000 nM | CC(=O)N[C@H](CNC(=O)Cc1ccc(NC(=O)Nc2ccccc2C)cc1)C(=O)NCC(=O)O [Compound 14, MPUPA-Dap(Ac)-Gly-OH] | inactive |  |
| 236 ± 47 nM | CC(=O)N[C@@H](CNC(=O)Cc1ccc(NC(=O)Nc2ccccc2C)cc1)C(=O)NCC(=O)O [Compound 13, MPUPA-(S)-Dap(Ac)-Gly-OH] | submicromolar range | amount of intact peptide [2]: ~91% |
| 9.8 ± 2.1 nM | CCCNC(=O)[C@@H](CC(=O)NCC(=O)O)NC(=O)Cc1ccc(NC(=O)Nc2ccccc2C)cc1 [Compound 12, MPUPA-(R)-isoAsp(NHPr)-Gly-OH] |  | amount of intact peptide [2]: around 80% |
| 4060 ± 780 nM | Cc1ccccc1NC(=O)Nc1ccc(CC(=O)N[C@@H](C)CC(=O)NCC(=O)O)cc1 [Compound 7, MPUPA-β^3-homoAla-Gly-OH] |  |  |
